Assay results reported in patent US11484608B2, “Non-invasive assessment of hepatic mitochondrial metabolism by positional isotopomer NMR tracer analysis (PINTA)” (YALE UNIVERSITY, priority 2017, dated 2022).

What was measured:
[1] = test system: hepatic glucose production, VPC and VCS (InsP3R-I signaling); assay: Acute 2 hr glucagon infusion in WT and liver-specific InsP3R-I KO mice; format: in vivo, mouse
Excerpt: All protocols were approved by the Yale University Animal Care and Use Committee. Liver-specific InsP3R-I KO mice were generated as described (Feriod, et al. Hepatology Communications 1, 23-35, 2017) and in all experiments, littermates were studied at 10-12 weeks of age. They were fed standard chow (Teklad #2018) and housed on a 12 hr light/dark cycle in the Yale Animal Resources Center. To knock down ATGL in a liver-specific manner, an adeno-associated virus targeting ATGL (Vector BioLabs, 10^12 gc per mouse) was administered by retro-orbital injection four weeks prior to studies. Male mice were used for in vivo studies, while female mice were used for in vitro studies, unless otherwise specified. One week prior to in vivo studies, mice underwent surgery under isoflurane anesthesia to place a catheter in the jugular vein. Post-surgical recovery was confirmed by regaining the pre-surgical body weight prior to any in vivo studies. They were fasted overnight, unless otherwise stated, prior to in vivo studies. […] Mice were euthanized using IV pentobarbital at the conclusion of the terminal study.
In the rat studies, blood was collected from the jugular venous catheter. In both species, samples were immediately centrifuged (12,000 rpm) to separate plasma from red blood cells. PINTA analysis of hepatic mitochondrial fluxes was employed in both rats and mice (see Example 1). Briefly, mice were infused with a two-hour primed (5 min, 3×)-continuous infusion of [3-^13C] lactate (40 μmol kg^−1 min^−1) and [1,2,3,4,5,6,6-^2H7] glucose (0.1 mg kg^−1 min^−1). Rats were infused with lactate at the same rate, as well as [3-^3H] glucose (0.1 mCi kg^−1 min^−1). At the conclusion of the study, animals were euthanized with IV pentobarbital.
Total glucose turnover (i.e. hepatic glucose production) was measured by determining the specific activity of [^3H] glucose in plasma using a scintillation counter, and the VPC/VHGP ratio was calculated using the equation
[formula] and calculated absolute VCS by dividing VPC by VPC/VCS. The derivations of each equation are described in detail in Example 1. The possible contribution of [^13C] bicarbonate to label the TCA cycle was corrected for as follows. Liver [^13C] bicarbonate enrichment was measured by GC-MS (HP-1 column: 12 m×0.2 mm×0.33 μm film, isothermal: 110° C.). Liver tissue (˜[…]) was placed in a GC-MS vial, purged with N2 gas, and sealed. To each sample, a saturated aqueous solution of citric acid (50 μl) was injected into the vial through the cap. After ten minutes, CO2 was sampled from the head-space and ions with m/z 44 and 45 daltons were monitored using electron impact ionization.
Plasma glucose concentrations were measured using a YSI Glucose Analyzer. […] Plasma NEFA concentrations were measured using the Wako NEFA assay, while plasma glycerol and plasma and liver amino acid concentrations were measured by GC/MS. […] Protein concentrations were measured by Western blot, using antibodies from Santa Cruz (PC, PEPCK, CAMKII), Cell Signaling (ATGL, pCAMKIV, CAMKIV, pCRTC2, CRTC2, pACC, ACC, pAMPK, AMPK, pHSL, HSL, GAPDH, and β-actin), Novus Biologicals (pCAMKII), Abcam (pATGL), LSBio (pInsP3R-I), and BD Transduction Laboratories (InsP3R-II, InsP3R-III, PKCε).

[2] = test system: primary mouse hepatocytes; assay: Oxygen consumption in isolated hepatocytes (Seahorse); format: cell-based
Experimental: To assess oxygen consumption, primary mouse hepatocytes were isolated as described above and plated on collagen-I coated XF24 V7 cell culture plates (1.2×10^4 cells per well) in 2 mL recovery media as previously described (Camporez, J. P. et al. Endocrinology 154, 3099-3109). Following incubation for 6 hr at 37° C. and 5% CO2, the cells were washed twice with 1 ml Low Glucose Culture Media and incubated overnight in 250 μl low glucose culture media at 37° C. and 5% CO2. The following morning, cells were washed with XF24 assay media (DMEM Base containing 1.0 mM pyruvate, 2 mM glutamine and 5.5 mM glucose, pH 7.4). 500 μL of XF24 Assay Media was added to each well and plates were equilibrated at 37° C. for 1 h. Four measurements of basal oxygen consumption rates (picomoles per minute) were recorded on a Seahorse Bioscience XF^e 24 Analyzer (Seahorse Biosciences) using an instrument protocol of 3-minute mix, 2-minute wait, and 3-minute measure. […] Ten measurements were taken following injection and the average of eight measurements were used for subsequent analyses. Oxygen consumption rates were normalized to total protein content and expressed as fold change compared to vehicle-treated cells. Experiments were repeated three times using 3-4 mice per genotype.

## glucagon
[1]; InsP3R-I-dependent, CAMKIV not
  hepatic CAMKII phosphorylation: stimulated
[1]; PINTA, acute glucagon infusion
  increases in rates of HGP: ~25%
[1]; WT livers
  increase in InsP3R-I phosphorylation: two-fold
[1]; WT mice
  increase in hepatic mitochondrial oxidation (VCS): five-fold
  plasma non-esterified fatty acid (NEFA) concentrations: reduced
[1]; WT mice in vivo, not InsP3R-I KO
  increase in hepatic ATGL S406 phosphorylation: three-fold
[1]; WT mice, acute glucagon infusion
  plasma glucose and insulin concentrations: modest increase
[1]; WT mice, not InsP3R-I KO
  increase in hepatic pyruvate dehydrogenase flux (VPDH): 7 fold
[1]; acute glucagon infusion
  hepatic malonyl-CoA content: independently of any changes
  increases in hepatic long-chain acyl-CoA and acetyl-CoA content: 35-60%
[1]; acute glucagon study
  VPK as percentage of hepatic VPC flux: 15-35%
[1]; both genotypes
  cAMP concentrations, protein kinase A activity, CRTC2 phosphorylation (liver): increased
  hormone-sensitive lipase (HSL) phosphorylation: increased
[1]; liver-specific InsP3R-I knockout mice
  hepatic mitochondrial oxidation: failed to exhibit any increases
[1]; mice infused with glucagon
  pyruvate kinase flux (VPK): without any difference
[2]; InsP3R-I KO hepatocytes from male mice
  stimulation of mitochondrial oxidation: blunted
[2]; WT hepatocytes from male mice
  stimulation of mitochondrial oxidation: ~60%
[2]; isolated WT hepatocytes, 100 nM glucagon, not InsP3R-I KO
  oxygen consumption: increase
